Reference: patent US20160220500A1, “Targeting Intracellular Copper Ions for Inhibiting Angiogenesis Using Nanoparticles of Ternary Inorganic Metal Sulfide M1M2S4 (M1, independently, is Mg, Ca, Mn, Fe, or Zn; M2 = Mo or W) Compounds to Treat Metastatic Cancer” (KENT STATE UNIVERSITY, priority 2014, published 2016)

Tested on: HuVEC cells
Assay: VEGF-induced tube formation assay
Format: cell-based, human
Conditions: VEGF (50 ng/ml), sulforaphane 5 uM
Method: The tube formation assay is an in vitro a model of angiogenesis commonly used to measure the ability of endothelial cells to form “tubes” (i.e. three-dimensional structures that resemble vessel walls). Tube formation studies were conducted in a 96-well plate format using an in vitro angiogenesis assay kit from Trevigen Inc. (Trevigen, Gaithersburg, Md.). Prior to tube formation assay, Huvec cells were starved overnight in EGM-2 basal medium in the culture dish. […] The cells were harvested and counted, and a single cell suspension at 1×10^6 cells/ml was prepared. […] Tube formation was visualized using a fluorescence microscope (485 nm excitation/520 nm emission) at 200× total magnification. Numbers of branch points were counted for each of six randomly chosen fields, and then averaged for each condition. […] Statistical significance was determined using student t-test.
The tube formation was quantified and expressed as mean number of branching points per viewing field as shown in FIG. 5F for the high dose treatment using nanoparticles of ZnMoS4.
The Huvec cells were harvested, counted, and diluted in EBM-2 basal medium in the presence (Panels B-E) or absence (Panels A) of VEGF (50 ng/ml) and ZnMoS4 NPs at 50 ng/ml (Panel C) and 10 ng/ml (Panel D). […] F. Quantitative assessment of the tube formation was done by counting the average number of branch points per viewing field. […]

SMILES: C[S+]([O-])CCCCN=C=S (stereo not shown) [sulforaphane]
- tube formation: prevented tube formation
